From EP2810648A1, “Targeting domain-domain interaction for the identification of kinase modulators” (Rauh, Daniel, priority 2013, dated 2014)

Biological target: T1, Human Akt1 (UniProt entry P31749) (Homo sapiens, UniProt P31749, C296S/C310S/C344S/E49C)
T1 construct: made in house; host or cells: baculovirus, TriEx Sf9 cells
Test: iFLiK assay (fluorophore-labeled Akt1 binding assay)
Conditions: for effect on PyMPO fluorescence (emission spectrum): PyMPO-labeled Akt1
Procedure: Measurements were carried out in black 384-well plates (Greiner Bio One). Labeled Akt1 was diluted to 200 nM in the measurement buffer consisting of 50 mM HEPES pH 7.4, 200 mM NaCl and 0.01% Triton-X 100. Dilution series of candidate compounds were prepared in DMSO at 21X the final desired concentration. Compounds (0.5 µL) were then mixed with labeled Akt1 (10 µL) in triplicates and with measurement buffer only in quadruplicates at 12 different concentrations to achieve final compound concentrations ranging from 0.8 nM to […]. Each well contained 5% v/v DMSO after mixing. Plates were then covered with an adhesive plastic foil and incubated for 2 h at RT prior to measurement of emission intensities at fluorophore-specific wavelengths (Table 1) using a Tecan Infinite M1000 plate reader. Compound auto-fluorescence was compensated by subtraction of the average background signals obtained in the absence of labeled kinase. The respective assay readout for the various Akt-fluorophore conjugates specified in Table 1 were fit to a Hill 4-parameter equation to determine Kd values for allosteric Akt ligands. Each reaction was performed in triplicate and at least three independent measurements of each Kd were determined for each ligand. Table 1: Overview of fluorophore probes.
Screening initiatives were carried out in black 384-well plates (Greiner Bio One). PyMPO-labeled Akt1 was diluted to 200 nM in the measurement buffer consisting of 50 mM HEPES pH 7.4, 200 mM Nacl and 0.01% Triton-X 100. Each candidate compound was prepared in DMSO at 210 µM. Compounds (0.5 µL) were then mixed each with labeled Akt1 (10 µL) and with measurement buffer only to achieve final compound concentrations of 10 µM. Each well contained 5% v/v DMSO after mixing. Plates were then covered with an adhesive plastic foil and incubated for 2 h at RT prior to measurement using a Tecan Infinite M1000 plate reader emission intensities at 508 nm and 638 nm, using both 419 nm and 440 nm for excitation. Compound auto-fluorescence was compensated by subtraction of the average background signals obtained in the absence of labeled kinase. Ratio of fluorescence intensities fl638/fl508 were calculated from the background-subtracted values. For hit picking criteria, see Table 2 below.

T1 sequence (P31749 whole entry E49C/C296S/C310S/C344S, one chain of several): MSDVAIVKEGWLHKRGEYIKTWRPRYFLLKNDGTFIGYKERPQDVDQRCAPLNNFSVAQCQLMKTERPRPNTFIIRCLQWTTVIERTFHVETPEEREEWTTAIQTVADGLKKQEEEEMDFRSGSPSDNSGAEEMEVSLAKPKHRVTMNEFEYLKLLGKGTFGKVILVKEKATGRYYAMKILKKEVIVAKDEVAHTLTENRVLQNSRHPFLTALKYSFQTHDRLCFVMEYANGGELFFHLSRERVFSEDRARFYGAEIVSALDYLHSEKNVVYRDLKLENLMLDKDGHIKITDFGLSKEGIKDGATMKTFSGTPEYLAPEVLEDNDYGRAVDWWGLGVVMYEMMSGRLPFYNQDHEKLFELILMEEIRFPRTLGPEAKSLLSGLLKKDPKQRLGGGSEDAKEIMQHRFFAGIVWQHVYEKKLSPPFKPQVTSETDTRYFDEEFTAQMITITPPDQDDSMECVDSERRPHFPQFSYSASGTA

| effect on PyMPO fluorescence (emission spectrum) | response of the labeled kinase (collection of fluorophore-labeled kinases, dilution series 0.8 nM to 50 µM) | SMILES |
| --- | --- | --- |
| reduction of the fluorescence intensity | – | O=C(O[C@@H]1Cc2c(O)cc(O)cc2O[C@@H]1c1cc(O)c(=O)c2c(O)c(O)cc([C@H]3Oc4cc(O)cc(O)c4C[C@H]3O)c2c1)c1cc(O)c(O)c(O)c1 [XX8] |
| no effect | – | NC1(Cc2ccc(Cl)cc2)CCN(c2ncnc3[nH]ccc23)CC1 [CCT128930] |
| no effect | unresponsive | CCn1c(-c2nonc2N)nc2c(C#CC(C)(C)O)ncc(OC[C@H]3CCCNC3)c21 [GSK690693] |
| bathochromic shift | – | NC1(c2ccc(-c3nc4ccn5c(=O)[nH]nc5c4cc3-c3ccccc3)cc2)CCC1 [MK-2206] |
